# Test results reported in patent publication US20200222474A1, “COMPOSITIONS AND METHODS FOR INCREASING PHYTOCHEMICAL BIOAVAILABLITY AND BIOACTIVITY” (North Carolina State University, priority 2017, published 2020).
# Experiments:
# NCK2424 (ΔLBA0726) = assay: Phenotypic growth analysis of deletion mutant (phospho-β-glucosidase); assay type: cell-based, Lactobacillus acidophilus; settings: compared with background Δupp strain
# Procedure: (§1) Phenotypic growth assays were performed using 1% (v/v) overnight cultures of L. acidophilus strains (Table 2) and other Lactobacillus species (Table 3) grown on SDM supplemented with 1% (w/v) glucose to inoculate 200 μL of SDM supplemented with 1% (w/v) of the examined carbohydrate (0.5% in the case of esculin) in 96-well microplate wells (Corning Costar, Corning, N.Y., USA) in duplicate or triplicate wells, respectively. The microplates were sealed with clear adhesive film, incubated at 37° C. in a Fluostar Optima microplate reader (BMG Labtech, Cary, N.C., USA), and the cell optical density (OD600) was monitored for 30 hours.
# Construction of gene deletion mutants. The L. acidophilus NCFM genes LBA0225 and LBA0726, both encoding P-Bgl of glycoside hydrolase family 1 (GH1) enzymes in addition to the LBA0227 and LBA0725 genes encoding an EIIC and an EIICBA components of two PTS systems, respectively, were deleted using the upp-based counterselectable gene replacement system. Briefly, in-frame deletions were constructed by amplifying 650-750 bp of the up- and downstream flanking regions of the deletion targets with two primer pairs (e.g., LBA0225A/LBA0225B and LBA0225C/LBA0225D; Table 4). The resulting purified products were joined by splicing using overlap extension PCR (SOE-PCR63) and amplified to establish the deletion alleles. The SOE-PCR products, that include flanking restriction enzyme sites, were cloned within the BamHI and SacI/EcoRI sites of the pTRK935 integration vector and transformed into E. coli EC101. […]
# (§2) To establish the functional significance of these two loci, single deletions of each PTS EII and P-Bgl gene, and a double deletion of both P-Bgl genes were constructed using the upp-based counter-selectable gene replacement system (Table 2) and the growth phenotypes of the mutant strains were analyzed (FIG. 3). […]
# [1] = system: NCK2426 (ΔLBA0225ΔLBA0726); assay: Phenotypic growth analysis of double phospho-β-glucosidase mutant; assay type: cell-based, Lactobacillus acidophilus; settings: compared with background Δupp strain
# Procedure: as §1
# Construction of gene deletion mutants. The L. acidophilus NCFM genes LBA0225 and LBA0726, both encoding P-Bgl of glycoside hydrolase family 1 (GH1) enzymes in addition to the LBA0227 and LBA0725 genes encoding an EIIC and an EIICBA components of two PTS systems, respectively, were deleted using the upp-based counterselectable gene replacement system. […]
# as §2
compound,measurement,setting,value
N#C[C@H](O[C@@H]1O[C@H](CO[C@@H]2O[C@H](CO)[C@@H](O)[C@H](O)[C@H]2O)[C@@H](O)[C@H](O)[C@H]1O)c1ccccc1 [Amygdalin],growth of the ΔLBA0726 mutant (P-Bgl),NCK2424 (ΔLBA0726),severe reduction in growth
same,growth of the double P-Bgl mutant (LBA0225/LBA0726),[1],abolished
